Measured values published in ChEMBL document CHEMBL4229552, “Optimization of 5-arylidene barbiturates as potent, selective, reversible LSD1 inhibitors for the treatment of acute promyelocytic leukemia” (Bioorg Med Chem, 2018).
Calls of active or inactive are those of the source. The rule behind the calls is not given here.

Experiments:
NB-4 [1] = test: Induction of differentiation of human NB4 cells assessed as increase in CD11b positive cells at 0.5 to 5 uM by flow cytometric analysis; assay type: functional, cell-based
[2] = target: T1, Lysine-specific histone demethylase 1A (Homo sapiens, UniProt O60341)
NB-4 [3] = test: Induction of differentiation of human NB4 cells assessed as increase in CD11b positive cells at 2.5 uM by flow cytometric analysis relative to control; assay type: functional
NB-4 [4] = test: Induction of differentiation of human NB4 cells assessed as increase in CD11b positive cells at 5 uM by flow cytometric analysis relative to control; assay type: functional
NB-4 [5] = test: Induction of differentiation of human NB4 cells assessed as increase in CD11b positive cells at 1.25 uM by flow cytometric analysis relative to control; assay type: functional, cell-based
[6] = target: T1, Lysine-specific histone demethylase 1A; test: Binding affinity to fluorescently labeled recombinant human LSD1 expressed in Escherichia coli by MST analysis
[7] = target: T1, Lysine-specific histone demethylase 1A; conditions: 4.1 uM
[8] = target: T2, Amine oxidase [flavin-containing] A (Homo sapiens, UniProt P21397); test: Inhibition of recombinant full length N-terminal FLAG-tagged human MAO-A expressed in baculovirus infected Sf9 insect cells using […] as substrate after 1 hr by spectrometric method
T2 sequence (P21397 whole entry): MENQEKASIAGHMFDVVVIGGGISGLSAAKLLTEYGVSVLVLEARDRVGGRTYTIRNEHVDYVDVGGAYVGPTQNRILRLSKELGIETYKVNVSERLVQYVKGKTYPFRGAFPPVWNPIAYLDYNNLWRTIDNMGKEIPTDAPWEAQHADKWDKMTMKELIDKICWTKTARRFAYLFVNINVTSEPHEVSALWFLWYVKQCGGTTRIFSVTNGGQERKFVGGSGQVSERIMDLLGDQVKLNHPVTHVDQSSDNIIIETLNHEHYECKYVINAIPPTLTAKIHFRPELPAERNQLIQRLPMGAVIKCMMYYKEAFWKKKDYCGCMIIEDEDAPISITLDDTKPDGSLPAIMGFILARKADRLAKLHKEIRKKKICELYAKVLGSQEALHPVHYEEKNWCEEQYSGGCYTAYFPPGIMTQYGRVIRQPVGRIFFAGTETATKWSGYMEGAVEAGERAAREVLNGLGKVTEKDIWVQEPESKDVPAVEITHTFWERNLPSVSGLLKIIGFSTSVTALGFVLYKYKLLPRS

[9] = target: T3, Amine oxidase [flavin-containing] B (Homo sapiens, UniProt P27338); test: Inhibition of recombinant full length N-terminal FLAG-tagged human MAO-B expressed in baculovirus infected Sf9 insect cells using […] as substrate after 1 hr by spectrometric method
T3 sequence (P27338 whole entry): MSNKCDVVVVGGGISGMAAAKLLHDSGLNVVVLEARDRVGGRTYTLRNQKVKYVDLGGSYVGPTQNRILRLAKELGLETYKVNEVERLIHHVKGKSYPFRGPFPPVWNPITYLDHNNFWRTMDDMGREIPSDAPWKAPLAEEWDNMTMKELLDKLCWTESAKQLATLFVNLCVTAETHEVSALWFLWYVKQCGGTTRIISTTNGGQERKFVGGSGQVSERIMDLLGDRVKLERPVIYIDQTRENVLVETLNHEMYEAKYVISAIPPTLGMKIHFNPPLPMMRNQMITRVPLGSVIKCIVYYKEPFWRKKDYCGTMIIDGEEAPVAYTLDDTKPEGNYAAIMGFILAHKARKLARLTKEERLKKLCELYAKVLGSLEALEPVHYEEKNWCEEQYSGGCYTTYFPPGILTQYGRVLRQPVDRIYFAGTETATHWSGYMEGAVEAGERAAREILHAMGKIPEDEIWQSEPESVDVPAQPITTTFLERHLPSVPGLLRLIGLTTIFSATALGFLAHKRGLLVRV

Homo sapiens [10] = organism: Homo sapiens
Homo sapiens [11] = organism: Homo sapiens; remark: listed apart in the source
NB-4 [12] = test: Induction of differentiation of human NB4 cells assessed as increase in CD11b positive cells at 10 uM by flow cytometric analysis relative to control; assay type: functional
[13] = target: T1, Lysine-specific histone demethylase 1A; test: Inhibition of LSD1 in HEK293 cells assessed as increase in H3K4me2 levels at 2.5 uM after 24 hrs by Western blot method; assay type: cell-based
[14] = target: T1, Lysine-specific histone demethylase 1A; test: Inhibition of LSD1 in HEK293 cells assessed as increase in H3K4me1 levels at 10 uM after 24 hrs by Western blot method; assay type: cell-based
[15] = target: T1, Lysine-specific histone demethylase 1A; remark: listed apart in the source

N#Cc1ccc(N2C(=O)NC(=O)C(=Cc3ccc(O)c(O)c3)C2=O)cc1
Activity (NB-4 [1]): Active
IC50 [2]: 1.2 µM

CN1CCN(C(=O)CN[C@H]2C[C@@H]2c2ccc(OCc3ccccc3)cc2)CC1
Activity (NB-4 [1]): Active

COc1cc(C=C2C(=O)NC(=O)N(c3ccc(Br)cc3)C2=O)cc(OC)c1O
Activity (NB-4 [3]): Active
Activity (NB-4 [4]): Active
Activity (NB-4 [5]): Active
IC50 [2]: 0.55 µM

COc1ccc(CC2C(=O)NC(=O)N(c3ccc(Br)cc3)C2=O)cc1OC (configuration not stated)
IC50 [2]: > 75 µM

COc1ccc(C=C2C(=O)NC(=O)N(c3ccc(Br)cc3)C2=O)cc1OC
IC50 [2]: 2.8 µM

COc1ccc(N2C(=O)NC(=O)C(=Cc3ccc(O)c(O)c3)C2=O)cc1
IC50 [2]: 3.1 µM

COc1cc(C=C2C(=O)NC(=O)N(c3ccc(Br)cc3)C2=O)ccc1O
Activity (NB-4 [3]): Active
Activity (NB-4 [4]): Active
Activity (NB-4 [5]): Active
IC50 [2]: 0.87 µM

O=C1NC(=S)N(c2ccc(Br)cc2)C(=O)C1=Cc1ccc(O)c(O)c1
Kd [6]: 1.1 µM
Activity [7]: 98.2%
IC50 [8]: 72.5 µM
IC50 [9]: > 200 µM
Ratio IC50 (Homo sapiens [10]): 177
Ratio IC50 (Homo sapiens [11]): > 487
Activity (NB-4 [3]): 12.5%
Activity (NB-4 [4]): 36.6%
Activity (NB-4 [12]): 89.7%
inhibition [13]: Active
inhibition [14]: Active
IC50 [2]: 0.41 µM

COc1ccc(N2C(=O)NC(=O)/C(=C\c3ccc(N4CCOCC4)c(F)c3)C2=O)cc1
IC50 [2]: 18.2 µM

Cc1ccc(N2C(=O)NC(=O)C(=Cc3cc4ccccc4[nH]3)C2=O)cc1
Activity (NB-4 [1]): Active
IC50 [2]: 1.1 µM

O=C1NC(=O)N(c2ccc(Br)cc2)C(=O)C1=Cc1ccc(O)c(O)c1
Ratio IC50 [15]: 12
Activity (NB-4 [1]): Active
IC50 [2]: 0.3 µM

COc1ccc(C=C2C(=O)NC(=O)N(c3ccc(Br)cc3)C2=O)cc1O
IC50 [2]: 3.6 µM

CCc1ccc(N2C(=O)NC(=O)/C(=C\c3cc4ccccc4[nH]3)C2=O)cc1
IC50 [2]: 6.42 µM

COc1ccc(C=C2C(=O)NC(=O)N(c3ccc(Br)cc3)C2=O)c(OC)c1OC
IC50 [2]: 3.6 µM

Cc1ccc(N2C(=O)NC(=O)C(=Cc3cccc(O)c3)C2=O)cc1
IC50 [2]: 23 µM

Cc1ccccc1N1C(=O)NC(=O)C(=Cc2cc3ccccc3[nH]2)C1=O
IC50 [2]: 4.4 µM
